For 11 compounds, melting point and IC50 results are on record in patent US20040097555A1, “Concomitant drugs” (priority 2000, published 2004).

The target of one data set is T1, human p38 MAP kinase (Homo sapiens, UniProt Q16539).
T1 construct: FLAG (N); made in house; host or cells: Sf-21 insect cells, baculovirus (BAC-HP38 co-infected with BAC-caMKK3)
The data set is described as follows: Measurement of the enzyme inhibitory activity of active form p38 MAP kinase (32P uptake into Myelin Basic Protein), Reference Example C1. It counts as biochemical. The settings on record: concentration inhibiting uptake of 32P into acid insoluble fraction (Myelin Basic Protein) by 50%, Table 45. On the procedure:
(1) Cloning of Human p38 MAP Kinase Gene and Preparation of Recombinant Baculovirus
Cloning of human p38 MAP kinase gene was performed by a PCR method using a primer set P38-U: 5′-[…]-3′ [SEQ ID NO:1] and PAG-L: 5′-[…]-3′ [SEQ ID NO:2] made by the use of kidney cDNA (Toyobo, QUICK-Clone cDNA) as a template and referring to the base sequence of p38 MAP kinase gene reported by Han et al. (Science 265 (5173), 808-811 (1994)).
(2) Cloning of Human MKK3 Gene and Preparation of Recombinant Baculovirus
(3) Preparation of Active Form p38 MAP Kinase
The Sf-21 cells were seeded on 100 mL Sf-900II SFM medium (GIBCOBRL) to 1×10^6 cells/mL and cultured at 27° C. for 24 hours. After each 0.2 mL of the virusstock BAC-HP38 and BAC-caMKK3 of recombinant baculovirus were added, the culturing was further performed for 48 hours. After the cells were separated from the culturing solution by centrifugation (3000 rpm, 10 min), the cells were washed twice with PBS. After the cells were suspended in 10 ml Lysis buffer (25 mM HEPES (pH 7.5), 1% Triton X, […], 1 mM EDTA, 1 mM DTT, 25 mM β-glycerophosphate, […], 1 mM APMSF, 1 mM Sodium orthovanadate), the cells were lysed by treating twice in a homogenizer (POLYTRON) at 20000 rpm for 2 minutes. From the supernatant obtained by centrifugation (40000 rpm, 45 minutes), active form p38 MAP kinase was purified using Anti-FLAG M2 Affinity Gel (Eastman Chemical).
(4) Measurement of the Enzyme Inhibitory Activity
2.5 μL of a test compound dissolved in DMSO was added to 37.5 μL reaction solution (25 mM HEPES (pH 7.5), 10 mM Magnesium Acetate) containing 260 ng active form p38 MAP kinase and 1 μg Myelin Basic Protein, which was maintained at 30° C. for 5 minutes. The reaction was initiated by adding […] ATP solution (2.5 μM ATP, 0.1 μCi [g-^32P]ATP). After the reaction was performed at 30° C. for 60 minutes, the reaction was stopped by adding 50 μL 20% TCA solution. After the reaction solution was allowed to stand at 0° C. for 20 minutes, an acid insoluble fraction was transferred to GF/C filter (Packard Japan) using Cell Harvester (Packard Japan) and washed with 250 mM H3PO4. After drying at 45° C. for 60 minutes, 40 μL Microscint 0 (Packard Japan) was added and the radioactivity was measured with a TopCount (Packard Japan). The concentration (IC50 value) of the test compound necessary for inhibiting uptake of ^32P into an acid insoluble fraction by 50% was calculated with PRISM 2.01 (Graphpad Software).

The subject of data set [1] is TNF-α production in THP-1 cells. The data set is described as follows: Measurement of inhibiting activity of TNF-α production in LPS-stimulated THP-1 cells (ELISA), Experimental Example C2. It counts as cell-based. The settings on record: Homo sapiens, concentration inhibiting TNF-α production by 50%, LPS 5 μg/mL, 4 hour, Table 46. On the procedure:
(§1) Measurement of inhibiting activity of TNF-α production
After THP-1 cells which had been cultured on PRMI 1640 medium (manufactured by Life Technologies, Inc.) containing 1% inactivated bovine fetal serum (manufactured by Life Technologies, Inc., U.S.A.) and 10 mM HEPES (pH 7.5) seeded on a 96-well plate to 1×10^5 cells/well, 1 μL test compound dissolved in DMSO was added. After incubation at 37° C. for 1 hour in a CO2 incubator, LPS (Wako Pure Chemicals) was added to the final concentration 5 μg/mL. After cultured at 37° C. for 4 hour in a CO2 incubator, the supernatant was obtained by centrifugation. The concentration of TNF-α in the supernatant was measured by ELISA (R&D Systems, Quantikine Kit). The concentration (IC50 value) of the test compound necessary for inhibiting TNF-α production by 50% was calculated using PRIMS 2.01 (Graphpad Software).
Background: An ELISA detects its analyte on a solid surface through an enzyme-linked reagent.

The test system is the same in data set [2]. The data set is described as follows: Measurement of inhibiting activity of TNF-α production in LPS-stimulated THP-1 cells (ELISA), Reference Example F3. Conditions: Homo sapiens, LPS 5 μg/mL, 4 hours, read-out: IC50 (concentration necessary for inhibiting TNF-α production by 50%). It is filed as cell-based. On the procedure: as §1
After THP-1 cells which had been cultured in PRMI 1640 medium (manufactured by Life Technologies, Inc.) containing 1% non-activated bovine fetal serum (manufactured by Life Technologies, Inc., U.S.A.) and 10 mM HEPES (pH 7.5) seeded on a 96-well plate to 1×10^5 cells/well, 1 μL test compound dissolved in DMSO was added to there. After incubation at 37° C. for 1 hour in a CO2 incubator, LPS (Wako Pure Chemicals) was added to the final concentration 5 μg/mL. After cultured at 37° C. for 4 hours in a CO2 incubator, the supernatant was obtained by centrifugation. The concentration of TNF-α in the supernatant was measured with ELISA (R&D System, Quantikine Kit). The concentration (IC50 value) necessary for inhibiting TNF-α production by 50% was calculated by PRIMS 2.01 (Graphpad Software).

T1 sequence (Q16539 whole entry): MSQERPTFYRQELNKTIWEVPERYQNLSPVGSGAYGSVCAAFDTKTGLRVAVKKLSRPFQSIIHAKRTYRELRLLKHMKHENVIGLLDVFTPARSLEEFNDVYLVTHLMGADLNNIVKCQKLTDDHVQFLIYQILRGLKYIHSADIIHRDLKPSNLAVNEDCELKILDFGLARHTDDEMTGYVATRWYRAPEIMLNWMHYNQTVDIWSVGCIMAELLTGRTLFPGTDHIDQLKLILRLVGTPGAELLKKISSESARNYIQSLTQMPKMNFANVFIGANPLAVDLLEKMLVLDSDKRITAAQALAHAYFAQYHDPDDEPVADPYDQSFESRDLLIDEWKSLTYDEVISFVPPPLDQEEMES

Consider `COc1ccc(-c2nc(N)sc2-c2cccnc2)cc1.Cl`, for which the melting point lay within 145 to 150 °C.

`COc1ccc(-c2nc(N)sc2-c2ccncc2)cc1` [13-14, [4-(4-methoxyphenyl)-5-(4-pyridyl)-1,3-thiazol-2-yl]amine] returned an IC50 at human p38 MAP kinase of 86 nM.

As to `Nc1nc(-c2ccccc2)c(-c2ccncc2)s1` [13-15, [4-phenyl-5-(4-pyridyl)-1,3-thiazol-2-yl]amine], the IC50 against human p38 MAP kinase was determined as 81 nM.

Consider `CNc1nc(-c2ccc(OC)cc2)c(-c2ccncc2)s1` [13-16, N-methyl [4-(4-methoxyphenyl)-5-(4-pyridyl)-1,3-thiazol-2-yl]amine], for which the IC50 against human p38 MAP kinase amounted to 60 nM.

The compound `CNc1nc(-c2ccc(Cl)cc2)c(-c2ccncc2)s1` [13-70, N-methyl [4-(4-chlorophenyl)-5-(4-pyridyl)-1,3-thiazol-2-yl]amine] had an IC50 at human p38 MAP kinase of 26 nM.

With `Cc1cccc(-c2nc(N)sc2-c2ccncc2)c1` [23-60, [4-(3-methylphenyl)-5-(4-pyridyl)-1,3-thiazol-2-yl]amine], in data set [1], the IC50 is 46 nM.

`Fc1ccc(-c2nc(-c3ccccc3)sc2-c2ccncc2)cc1` [44-1, 4-(4-fluorophenyl)-2-phenyl-5-(4-pyridyl)-1,3-thiazole] registered a melting point of 135 to 137 °C.

`COc1ccc(-c2nc(N)sc2-c2cccnc2)cc1` [Reference Example A 8, [4-(4-methoxyphenyl)-5-(3-pyridyl)-1,3-thiazol-2-yl]amine] registered a melting point of 265 to 266 °C.

Compound `CNc1nc(-c2ccc(OC)cc2)c(-c2cccnc2)s1` [Reference Example A 9, N-methyl [4-(4-methoxyphenyl)-5-(3-pyridyl)-1,3-thiazol-2-yl]amine] yielded a melting point of 158 to 159 °C.

For `Cc1cccc(-c2nc(-c3ccc(S(C)(=O)=O)cc3)sc2-c2ccnc(S(=O)(=O)c3ccccc3)c2)c1` [Reference Example D 28, 4-(3-methylphenyl)-2-(4-methylsulfonylphenyl)-5-(2-phenylsulfonyl-4-pyridyl)-1,3-thiazole], the melting point was 90 to 91 °C.

In the case of `Cc1cc(C)cc(-c2nc(N)sc2-c2ccnc(NC(=O)c3ccccc3)c2)c1` [compound 5], in data set [2], the IC50 amounted to 20 nM.

The melting point is the temperature of the solid-liquid transition.
